Legend:
[1] = ABTS radical cation decolorization assay to measure the antioxidant capacity; details: % inhibition at 20 uM single dose, read at 734 nm after 30 min
Description: The assay was modeled after the published procedure. Briefly, ABTS radical cation was prepared by adding 100 μl of 70 mM K2S2O8 to 10 ml ABTS, followed by vortexing and incubating at 37 °C water bath for 2 h. […] Trolox standards are dissolved in water. The reaction is started by adding the ABTS radical cation solution to the MPO inhibitors or Trolox (final concentration 20 μM). The plate is gently shaken for 1 min and then set on a bench top at room temperature for 30 min.

[2] = target: T1, native state (Fe3+) of hMPO (Homo sapiens, UniProt P05164); test: Low temperature ESR binding assay (binding-induced g shift, Rrelative); details: for ESR Rrelative: Rrelative = (Rbound - Rnative)/Rnative x 100, inhibitor:MPO 40:1, pH 6, 6 % DMSO, 4-7 K; for ESR Binding: class by Rrelative, inhibitor:MPO 40:1; for Δg: absolute difference between g X and g Y of the bound complex; for g X / g Y: electronic g value of the bound complex, X-band ESR, 5 K
T1 construct: purchased Athens Research and Technology
T1 sequence (P05164 49-745): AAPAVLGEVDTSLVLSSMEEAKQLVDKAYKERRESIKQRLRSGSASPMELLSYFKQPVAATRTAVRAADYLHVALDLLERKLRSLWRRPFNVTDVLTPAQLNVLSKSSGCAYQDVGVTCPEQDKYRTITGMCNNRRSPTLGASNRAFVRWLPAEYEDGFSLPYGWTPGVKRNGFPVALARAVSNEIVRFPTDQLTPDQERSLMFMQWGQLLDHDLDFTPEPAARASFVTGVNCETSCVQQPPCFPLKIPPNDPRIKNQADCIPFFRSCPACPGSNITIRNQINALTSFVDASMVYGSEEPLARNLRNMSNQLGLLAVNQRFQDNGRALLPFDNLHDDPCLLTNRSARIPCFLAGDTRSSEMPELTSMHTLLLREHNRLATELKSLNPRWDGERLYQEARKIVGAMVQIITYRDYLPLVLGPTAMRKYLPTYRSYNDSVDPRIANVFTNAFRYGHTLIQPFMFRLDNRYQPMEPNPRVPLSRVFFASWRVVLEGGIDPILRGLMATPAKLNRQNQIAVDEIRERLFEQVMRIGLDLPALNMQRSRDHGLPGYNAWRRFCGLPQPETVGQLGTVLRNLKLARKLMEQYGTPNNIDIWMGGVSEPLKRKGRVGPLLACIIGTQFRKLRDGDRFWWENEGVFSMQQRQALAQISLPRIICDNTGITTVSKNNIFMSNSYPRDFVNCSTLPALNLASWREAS
Description: After 5-min. incubation at room temperature, the entire reaction mixture (0.235 mL) was transferred to the ESR quartz tubes. To avoid the quartz tubes breaking during the rapid freezing cycles, the ESR tubes were initially frozen in a 1:1 Isopentane-Cyclohexane mixture cooled with dry ice powder and then transferred to a liquid nitrogen Dewar to be queued up for ESR measurements. The reaction mixture contained a final concentration of 6 % DMSO. ESR spectra were recorded on a Varian E-12, X-band spectrometer equipped with an Air Products liquid helium cryostat.
The experimental g values correspond to the spin Hamiltonian pertinent to the high-spin ion (S = 5/2).1 H=DSZ2-1/3SS+1+E/DSX2-SY2+βgeS.Be where D and E are the eigen values of the axial and rhombic field components, i.e., the symmetry of the ligand (inhibitors approaching heme in this case). […] When the heme lodges inside the protein, the protein side chain amino acid (histidine) approaches the heme vicinity and either binds (axially) directly to the iron in the heme pocket. […] Thus, the fifth ligand leads to lower (rhombic) symmetries causing the signal at g ~ 6 to split. This non-tetragonal splitting of the heme is quantitated by the relationship,2 E/D=Δg/48 where ∆g represents the absolute difference between the gX and gY components. Alternatively, making use of the fact that E/D maximum value = 1/3, one can simplify the above expression as a percentage of rhombicity, R:3 R=Δg/16×100%. […] To rank-order molecules in terms of their ability to distort the heme pocket/plane environment, we used a ratio of total distortion in the bound complex w.r.t. distortion seen in the native unbound enzyme:4 Rrelative=Rbound-Rnative/Rnative×100.
From the relative rhombicities of the bound and unbound complex, a measure of the strength of binding could be derived. […] For the ease of classification, we have empirically defined those with 5 ≤ Rrelative ≥ 2 as weak binding; 15 ≥ Rrelative ≥ 10 as moderate binding; and 25 ≥ Rrelative ≥ 15 as strong binding (Table 2).

[3] = target: T2, Human Myeloperoxidase (Homo sapiens, UniProt P05164); test: X-ray co-crystal growth by soaking MPO crystals with inhibitor; details: crystals soaked with 50 mM inhibitor
T2 construct: purchased Lee Biosciences 426-10
T2 sequence (P05164 49-745): T1 sequence (P05164 49-745)
Description: Human Myeloperoxidase and co-crystals of MPO were crystallized and analyzed using methods similar to those described by Davey and Fenna. Briefly, hanging drops of 25 mg/mL MPO, 25 mM sodium acetate pH 5.0, 50 mM NaCl, 50 mM ammonium sulfate, 2 mM calcium chloride, and 3-10 % polyethylene glycol 8000 were set up at 21 °C over reservoir solutions containing 300 mM sodium chloride. Crystals of the space group P21 and having two MPO subunits per asymmetric unit grew with the aid of micro-seeding as very thin plates having a brownish orange tinge. Crystals were soaked with inhibitor compounds at a concentration of 50 mM, in a stabilizing buffer containing 18 % polyethylene glycol 8000, 56 mM ammonium sulfate, 2.2 mM calcium acetate, and 56 mM HEPES pH 7.0. Co-crystals were cryo-protected in a stabilizing buffer containing 22.2 % methylpentanediol prior to flash cooling in liquid nitrogen.
Diffraction data were collected at 100 K using Synchrotron beam line 31ID at the Advanced Photon Source (Argonne National Laboratory) and were integrated using MOSFLM v.6.2.6 [18]. […] Inhibitor binding to the MPO heme group was indicated by appropriately shaped peaks in the Fo–Fc electron density maps. The inhibitor was included in the model, and iterative cycles of manual model building with COOT [20] and restrained refinement with REFMAC v5.2.0019 [21] were used to complete the overall structure. Figures of the crystal structure were generated using PYMOL (www.pymol.org). […] The higher B-factors for the inhibitor molecules could be attributed to inhibitor occupancies of less than 1.0 or to higher degrees of thermal motion associated with the inhibitors. Lower than expected electron density peak heights were also observed for the Cl atom in the inhibitors, which could be due to the radiation damage to this X-Ray sensitive group.

[4] = target: T3, hMPO (Homo sapiens, UniProt P05164); test: Alpha screen assay: inhibition of MPO-initiated nitration of the Apo-A1 peptide ([…]); assay type: biochemical; details: MPO 11.8 nM, pH 7.4, 45 min RT
T3 construct: purchased Biodesign A31804H
T3 sequence (P05164 49-745): T1 sequence (P05164 49-745)
Description: In a typical experiment, MPO (11.8 nM final concentration) in 20 mM phosphate buffer pH 7.4, 10 % glycerol and 0.005 % gelatin (PB) is added to each well of a multi-well plate containing 20 μl PB ± compound (final concentration of DMSO = 0.9 %). The reaction is started by the addition of 20 μl PB containing 1.5 μM ApoAI peptide substrate, 300 μM diethylenetriaminepentaacetic acid (DTPA), 300 μM sodium nitrite, and 30 μM H2O2. The total reaction volume is 60 μl. The plates are incubated with agitation for 45 min at RT. The reaction is terminated with the addition of 20 μl of a stop solution containing 11.2 nM rabbit anti-nitrotyrosine antibody (final conc. of 2.8 nM), 100 μg/ml streptavidin donor beads, and 100 μg/ml protein A acceptor beads (final concentration of […]), FBS (1.6 % final concentration) in Superblock buffer. The plates are sealed, incubated in the dark for 1 h, and read on a Packard Fusion alpha plate reader.
Through a chloride independent pathway, MPO catalyzes the one electron oxidation of nitrite ions to nitrogen dioxide radicals which then […] protein amino acids like Tyrosine. We used the Apo-A1 peptide substrate ([…]) to follow the nitration of the Tyrosine (indicated by Y in the scheme below): MPO+H2O2→Compound INO2-+Compound I→NO2·+Compound II [drawing 1] Our initial experiments focused on identifying inhibitors that bind to the heme to inhibit the above catalytic action. A representative set of inhibitors is collected in Fig. 1a (strong binders, vide infra) and b (non binders, vide infra).

| Compound | % Anti oxidant potential [1] | ESR Rrelative [2] | ESR Binding [2] | X ray Cocrystal result [3] | IC50 [4] | Δg [2] | g X [2] | g Y [2] |
| --- | --- | --- | --- | --- | --- | --- | --- | --- |
| O=C(NO)c1ccccc1O [LSN13243] | 74.9% | 14.7 | Moderate (15 ≥ Rrelative ≥ 10 as moderate binding) | Yes | 5.9 µM | – | – | – |
| S=c1[nH]nc(-c2ccncc2)o1 [LSN19450] | 85.8% | 0 | No | No | 3.99 µM | – | – | – |
| O=C(O)c1n[nH]c2ccccc12 [LSN23500] | 0% | 2.4 | Weak (5 ≤ Rrelative ≥ 2 as weak binding) | No | 160 µM | 1.875 | 6.789 | 4.914 |
| Cc1c(N)n[nH]c1-c1ccccc1 [LSN27223] | 32.7% | 3.3 | Weak (5 ≤ Rrelative ≥ 2 as weak binding) | No | 0.698 µM | – | – | – |
| O=C1CC(c2ccc(Cl)cc2)=NN1 [LSN34893] | 53.4% | 0.2 | No | No | 0.219 µM | – | – | – |
| Cc1cc(C)c2c(O)n[nH]c2n1 [LSN42503] | 82.5% | 0.3 | No | No | 0.168 µM | – | – | – |
| Cc1cc(O)nc2[nH]nc(O)c12 [LSN66421] | 10.4% | 0.2 | No | No | 0.406 µM | – | – | – |
| NC(=O)c1n[nH]cc1O [LSN104607] | 1.56% | 0 | No | No | 0.667 µM | – | – | – |
| O=[N+]([O-])c1c(O)ncnc1O [LSN106019] | 0% | 29.2 | Strong (25 ≥ Rrelative ≥ 15 as strong binding) | Yes | 538 µM | 2.31 | 7.023 | 4.713 |
| Cc1cc(C(F)(F)F)c(C#N)c(=O)[nH]1 [LSN131429] | 9% | -28.6 | Strong (25 ≥ Rrelative ≥ 15 as strong binding) | Yes | 138 µM | 1.344 | 6.559 | 5.215 |
| Oc1nnc(-c2ccccc2)s1 [LSN227931] | 0% | 0.2 | No | No | 333 µM | – | – | – |
| Oc1n[nH]c2c1CCC2 [LSN386639] | 38.2% | 0.2 | No | No | 0.396 µM | – | – | – |
| Sc1nnc(-c2cccnc2)o1 [LSN811183] | 95.9% | 16.5 | Strong (25 ≥ Rrelative ≥ 15 as strong binding) | Yes | 73 µM | 2.115 | 6.924 | 4.809 |
| Fc1ccccc1-c1n[nH]c(=S)o1 [LSN2303506] | 97.7% | 21.7 | Strong (25 ≥ Rrelative ≥ 15 as strong binding) | Yes | 27.9 µM | 2.1759 | 6.9749 | 4.799 |
